Reference: patent US11566007B2, “Ras inhibitors” (Revolution Medicines, Inc., priority 2019, dated 2023)
Where “and” joins values, the source holds several entries; their conditions need not be identical. Equal entries are not always repeated.

What was measured:
Assay type in all cases: biochemical
NRAS Q61K = NRAS Q61K (Homo sapiens (Human), UniProt P01111+P62937, Q61K); test: Ras-Raf (BRAF RBD) disruption / FRET / MOA assay, NRAS Q61K; conditions: NRAS Q61K; Ras-Raf disruption/FRET/MOA assay; read-out: IC50* NRAS Q61K FRET data
Chain of NRAS Q61K (P01111 whole entry Q61K): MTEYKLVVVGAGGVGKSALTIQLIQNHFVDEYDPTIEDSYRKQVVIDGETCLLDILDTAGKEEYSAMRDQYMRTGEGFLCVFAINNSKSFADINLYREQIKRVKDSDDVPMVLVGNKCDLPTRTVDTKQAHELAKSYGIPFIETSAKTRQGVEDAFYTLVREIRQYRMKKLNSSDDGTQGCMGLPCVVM
Chain of NRAS Q61K (P62937 whole entry): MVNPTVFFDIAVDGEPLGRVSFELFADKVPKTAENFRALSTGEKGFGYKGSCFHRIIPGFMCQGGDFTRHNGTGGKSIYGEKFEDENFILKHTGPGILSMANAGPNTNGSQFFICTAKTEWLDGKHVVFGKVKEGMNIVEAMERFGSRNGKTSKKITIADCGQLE
Method in brief: (§1)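 Compounds (30 μM top final, 10-point 3-fold dilutions) incubated 3 h at 25° C with nucleotide-loaded Ras, cyclophilin A and BRAF RBD. Detection with 10 nM anti-His Eu-W1024 and 50 nM anti-GST allophycocyanin over another 1.5 h. Lowered TR-FRET ratio relative to DMSO wells gives IC50.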

KRAS G13D = KRAS G13D (Homo sapiens (Human), UniProt P01116+P62937, G13D); test: Ras-Raf (BRAF RBD) disruption / FRET / MOA assay, KRAS G13D; conditions: read-out: IC50* KRAS G13D FRET data
Chain of KRAS G13D (P01116-2 other isoform, or with tags, fused parts or gaps G13D): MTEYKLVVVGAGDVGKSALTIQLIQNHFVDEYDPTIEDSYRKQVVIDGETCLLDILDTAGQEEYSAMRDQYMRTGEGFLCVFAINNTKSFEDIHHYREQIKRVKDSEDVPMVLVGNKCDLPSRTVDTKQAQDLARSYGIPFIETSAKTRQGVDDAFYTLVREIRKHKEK
Chain of KRAS G13D (P62937 whole entry): as the sequence (P62937 whole entry) above
Method in brief: (§2)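 A 10-point, 3-fold dilution series topping at 30 μM final was incubated 3 h at 25° C with the Ras/cyclophilin A/BRAF RBD mixture.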

NRAS WT = NRAS WT (Homo sapiens (Human), UniProt P01111+P62937); test: Ras-Raf (BRAF RBD) disruption / FRET / MOA assay, NRAS WT; conditions: read-out: IC50* NRAS WT FRET data
Chain of NRAS WT (P01111 whole entry): as the sequence (P01111 whole entry Q61K) above, with K61Q counted along it
Chain of NRAS WT (P62937 whole entry): as the sequence (P62937 whole entry) above
Method in brief: as §1

K-Ras G13C = K-Ras G13C (Homo sapiens (Human), UniProt P01116+P62937, G13C); test: Ras-Raf (BRAF RBD) disruption / FRET / MOA assay, KRAS G13C; conditions: KRAS G13C; Ras-Raf disruption/FRET/MOA assay; read-out: IC50* KRAS G13C FRET data
Chain of K-Ras G13C (P01116-2 other isoform, or with tags, fused parts or gaps G13C): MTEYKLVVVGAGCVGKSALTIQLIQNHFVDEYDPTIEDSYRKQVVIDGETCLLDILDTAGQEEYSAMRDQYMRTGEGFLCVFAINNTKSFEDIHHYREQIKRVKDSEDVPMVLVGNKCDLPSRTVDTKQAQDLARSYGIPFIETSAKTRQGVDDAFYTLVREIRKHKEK
Chain of K-Ras G13C (P62937 whole entry): as the sequence (P62937 whole entry) above
Method in brief: as §2

KRAS Q61H = KRAS Q61H (Homo sapiens (Human), UniProt P01116+P62937, Q61H); test: Ras-Raf (BRAF RBD) disruption / FRET / MOA assay, KRAS Q61H; conditions: Ras-Raf disruption/FRET/MOA assay; class symbols; read-out: KRAS Q61H FRET data IC50
Chain of KRAS Q61H (P01116-2 other isoform, or with tags, fused parts or gaps Q61H): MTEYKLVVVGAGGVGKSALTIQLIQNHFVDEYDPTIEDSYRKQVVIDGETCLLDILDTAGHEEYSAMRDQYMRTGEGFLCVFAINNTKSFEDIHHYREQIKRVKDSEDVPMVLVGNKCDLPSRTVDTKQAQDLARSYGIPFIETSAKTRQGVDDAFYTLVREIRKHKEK
Chain of KRAS Q61H (P62937 whole entry): as the sequence (P62937 whole entry) above
Method in brief: as §1

K-Ras G12C = K-Ras G12C (Homo sapiens (Human), UniProt P01116+P62937, G12C); test: Ras-Raf (BRAF RBD) disruption / FRET / MOA assay, KRAS G12C; conditions: KRAS G12C; Ras-Raf disruption/FRET/MOA assay; read-out: IC50* KRAS G12C FRET data
Chain of K-Ras G12C (P01116-2 other isoform, or with tags, fused parts or gaps G12C): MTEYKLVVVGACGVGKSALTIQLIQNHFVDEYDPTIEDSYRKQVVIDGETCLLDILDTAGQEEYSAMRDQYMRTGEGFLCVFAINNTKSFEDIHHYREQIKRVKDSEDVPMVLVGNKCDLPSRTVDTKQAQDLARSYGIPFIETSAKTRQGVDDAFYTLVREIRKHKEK
Chain of K-Ras G12C (P62937 whole entry): as the sequence (P62937 whole entry) above
Method in brief: as §2

NRAS G12C = NRAS G12C (Homo sapiens (Human), UniProt P01111+P62937, G12C); test: Ras-Raf (BRAF RBD) disruption / FRET / MOA assay, NRAS G12C; conditions: read-out: IC50* NRAS G12C FRET data
Chain of NRAS G12C (P01111 whole entry G12C): as the sequence (P01111 whole entry Q61K) above, with G12C, K61Q counted along it
Chain of NRAS G12C (P62937 whole entry): as the sequence (P62937 whole entry) above
Method in brief: as §2

KRAS G12V = KRAS G12V (Homo sapiens (Human), UniProt P01116+P62937, G12V); test: Ras-Raf (BRAF RBD) disruption / FRET / MOA assay, KRAS G12V; conditions: read-out: IC50* KRAS G12V FRET data
Chain of KRAS G12V (P01116-2 other isoform, or with tags, fused parts or gaps G12V): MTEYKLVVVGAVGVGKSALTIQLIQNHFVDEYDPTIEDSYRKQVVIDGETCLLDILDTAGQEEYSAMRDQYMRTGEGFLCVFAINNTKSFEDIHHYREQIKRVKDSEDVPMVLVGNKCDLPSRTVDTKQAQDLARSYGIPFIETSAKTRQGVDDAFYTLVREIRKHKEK
Chain of KRAS G12V (P62937 whole entry): as the sequence (P62937 whole entry) above
Method in brief: as §2

KRAS G12D = KRAS G12D (Homo sapiens (Human), UniProt P01116+P62937, G12D); test: Ras-Raf (BRAF RBD) disruption / FRET / MOA assay, KRAS G12D; conditions: Ras-Raf disruption/FRET/MOA assay; class symbols; read-out: KRAS G12D FRET data IC50
Chain of KRAS G12D (P01116-2 other isoform, or with tags, fused parts or gaps G12D): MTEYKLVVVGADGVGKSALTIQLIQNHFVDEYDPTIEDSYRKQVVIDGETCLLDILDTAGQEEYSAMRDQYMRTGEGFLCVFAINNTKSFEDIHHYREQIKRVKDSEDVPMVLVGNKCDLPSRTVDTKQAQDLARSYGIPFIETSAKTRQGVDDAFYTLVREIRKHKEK
Chain of KRAS G12D (P62937 whole entry): as the sequence (P62937 whole entry) above
Method in brief: as §2

Compound	IC50 (NRAS Q61K) [nM]	IC50 (KRAS G13D) [nM]	IC50 (NRAS WT) [nM]	IC50 (K-Ras G13C) [nM]	IC50 (KRAS Q61H) [nM]	IC50 (K-Ras G12C)	IC50 (NRAS G12C)	IC50 (KRAS G12V) [nM]	IC50 (KRAS G12D) [nM]
C=CC(=O)N1C[C@H](C)N(C(=O)N(C)[C@H](C(=O)N[C@H]2Cc3nc(cs3)-c3ccc4c(c3)c(c(-c3cccnc3[C@H](C)OC)n4CC)CC(C)(C)COC(=O)[C@@H]3CCCN(N3)C2=O)C(C)C)[C@@H](C)C1 (atropisomer, axis not shown) [Example A386]	10 to 100	100 to 1000	10 to 100	100 to 1000	10 to 100	10 to 100 nM	10 to 100 nM	100 to 1000	100 to 1000
C=CC(=O)N1CC[C@H](C(=O)N(C)[C@H](C(=O)N[C@H]2Cc3cc(O)cc(c3)-c3ccc4c(c3)c(c(-c3cc(C#N)cnc3COC)n4CC)CC(C)(C)COC(=O)[C@@H]3CCCN(N3)C2=O)C(C)C)C1 [Example A105]	100 to 1000	100 to 1000	100 to 1000	100 to 1000	10 to 100	10 to 100 nM	10 to 100 nM	100 to 1000	1000 to 10000
C=CC(=O)N(C)CCN1CCN(C(=O)N(C)[C@H](C(=O)N[C@H]2Cc3nc(cs3)-c3ccc4c(c3)c(c(-c3cccnc3[C@H](C)OC)n4CC)CC(C)(C)COC(=O)[C@@H]3CCCN(N3)C2=O)C(C)C)CC1 (atropisomer, axis not shown) [Example A630]	100 to 1000	1000 to 10000	100 to 1000	10 to 100	100 to 1000	100 to 1000 nM	100 to 1000 nM	100 to 1000	1000 to 10000
C=CC(=O)N1CC[C@H](C(=O)N(C)[C@H](C(=O)N[C@H]2Cc3cccc(c3)-c3ccc4c(c3)c(c(-c3cnccc3[C@H](C)OC)n4CC)CC(C)(C)COC(=O)[C@@H]3CCCN(N3)C2=O)C(C)C)C1 (single isomer, unassigned) [Example A115]	1000 to 10000	> 10000	1000 to 10000	1000 to 10000	100 to 1000	10 to 100 nM and 100 to 1000 nM	10 to 100 nM and 100 to 1000 nM	1000 to 10000	> 10000
C=CC(=O)N1CC[C@H](C(=O)N(C)[C@H](C(=O)N[C@H]2Cc3cc(cc(C(F)F)c3)-c3ccc4c(c3)c(c(-c3cccnc3[C@H](C)OC)n4CC)CC(C)(C)COC(=O)[C@@H]3CCCN(N3)C2=O)C(C)C)C1 (atropisomer, axis not shown) [Example A341, (3S)-1-acryloyl-N-((2S)-1-(((6^3S,4S)-2^5-(difluoromethyl)-1^1-ethyl-1^2-(2-((S)-1-methoxyethyl)pyridin-3-yl)-10,10-dimethyl-5,7-dioxo-6^1,6^2,6^3,6^4,6^5,6^6-hexahydro-1^1H-8-oxa-1(5,3)-indola-6(1,3)-pyridazina-2(1,3)-benzenacycloundecaphane-4-yl)amino)-3-methyl-1-oxobutan-2-yl)-N-methylpyrrolidine-3-carboxamide]	1000 to 10000	1000 to 10000	1000 to 10000	100 to 1000	100 to 1000	100 to 1000 nM	100 to 1000 nM	1000 to 10000	1000 to 10000
C=CC(=O)N1CCOC2(CCN(C(=O)N(C)[C@H](C(=O)N[C@H]3Cc4cccc(c4)-c4ccc5c(c4)c(c(-c4cccnc4[C@H](C)OC)n5CC(F)(F)F)CC(C)(C)COC(=O)[C@@H]4CCCN(N4)C3=O)C(C)C)CC2)C1 (atropisomer, axis not shown) [Example A608]	100 to 1000	100 to 1000	100 to 1000	10 to 100	10 to 100	100 to 1000 nM	100 to 1000 nM	100 to 1000	100 to 1000
C=CC(=O)N1CC[C@@]2(C1)CN(C(=O)N(C)[C@H](C(=O)N[C@H]1Cc3nc(cs3)-c3ccc4c(c3)c(c(-c3cccnc3[C@H](C)OC)n4CC)CC(C)(C)COC(=O)[C@@H]3CCCN(N3)C1=O)C(C)C)CCO2 (atropisomer, axis not shown) [Example A353]	10 to 100	100 to 1000	100 to 1000	100 to 1000	10 to 100	10 to 100 nM	10 to 100 nM	100 to 1000	100 to 1000
CCn1c(-c2cccnc2[C@H](C)OC)c2c3cc(ccc31)-c1cccc(c1)C[C@H](NC(=O)[C@@H](COC1CN(C(=O)C#C[C@H]3COCCN3C)C1)C(C)C)C(=O)N1CCC[C@H](N1)C(=O)OCC(C)(C)C2 (atropisomer, axis not shown) [Example A644]	> 10000	> 10000	> 10000	1000 to 10000	> 10000	10 to 100 nM	10 to 100 nM	> 10000	> 10000
CCn1c(-c2cccnc2[C@H](C)OC)c2c3cc(ccc31)-c1cccc(c1)C[C@H](NC(=O)[C@@H](COC1CN(C(=O)C#C[C@@H]3OCCCN3C)C1)C(C)C)C(=O)N1CCC[C@H](N1)C(=O)OCC(C)(C)C2 (atropisomer, axis not shown) [Example A648]	> 10000	> 10000	1000 to 10000	1000 to 10000	> 10000	100 to 1000 nM	100 to 1000 nM	> 10000	> 10000
CC#CC(=O)N1CCC(C(=O)N(C)[C@H](C(=O)N[C@H]2Cc3nc(cs3)-c3ccc4c(c3)c(c(-c3cccnc3[C@H](C)OC)n4CC)CC(C)(C)COC(=O)[C@@H]3CCCN(N3)C2=O)C(C)C)C1 (atropisomer, axis not shown) [Example A168]	1000 to 10000	> 10000	1000 to 10000	1000 to 10000	1000 to 10000	100 to 1000 nM	1000 to 10000 nM	1000 to 10000	> 10000
CCn1c(-c2cccnc2[C@H](C)OC)c2c3cc(ccc31)-c1cccc(c1)C[C@H](NC(=O)[C@H](C(C)C)N(C)C(=O)N1CCC13CN(C(=O)C#CC(C)(C)N(C)C)C3)C(=O)N1CCC[C@H](N1)C(=O)OCC(C)(C)C2 [Example A672]	100 to 1000	100 to 1000	100 to 1000	100 to 1000	10 to 100	10 to 100 nM	10 to 100 nM	100 to 1000	1000 to 10000
C=CC(=O)N1CCC2(CCN(C(=O)N(C)[C@H](C(=O)N[C@H]3Cc4nc(cs4)-c4ccc5c(c4)c(c(-c4cccnc4[C@H](C)OC)n5CC)CC(C)(C)COC(=O)[C@@H]4CCCN(N4)C3=O)C(C)C)CC2)C1 (atropisomer, axis not shown) [Example A698]	10 to 100	100 to 1000	100 to 1000	10 to 100	10 to 100	10 to 100 nM	10 to 100 nM	100 to 1000	100 to 1000
CCn1c(-c2cccnc2[C@H](C)OC)c2c3cc(ccc31)-c1csc(n1)C[C@H](NC(=O)[C@H](C(C)C)N(C)C(=O)N1CCC13CN(C(=O)C#CC(C)(C)N(C)C)C3)C(=O)N1CCC[C@H](N1)C(=O)OCC(C)(C)C2 (atropisomer, axis not shown) [Example A656]	100 to 1000	1000 to 10000	100 to 1000	1000 to 10000	10 to 100	100 to 1000 nM	100 to 1000 nM	1000 to 10000	1000 to 10000
C=CC(=O)N1CC[C@H](C(=O)N(C)[C@H](C(=O)N[C@H]2Cc3cc(O)cc(c3)-c3ccc4c(c3)c(c(-c3cc(N5CC(OC)C5)ccn3)n4CC)CC(C)(C)COC(=O)[C@@H]3CCCN(N3)C2=O)C(C)C)C1 [Example A104]	1000 to 10000	1000 to 10000	1000 to 10000	1000 to 10000	100 to 1000	10 to 100 nM	10 to 100 nM	1000 to 10000	> 10000
